# Experimental data reported in PMC9281569, “Two HCN4 Channels Play Functional Roles in the Zebrafish Heart” (Frontiers in Physiology, 2022).
# Values joined by “and” are separate entries in the source; they are usually repeats but may differ in a detail not shown here. Equal values may be shown once. Where a name gives a salt, the structure may show the parent alone. Read-outs that look alike come from different tables or passages of the source.
# Assays:
# DrHCN4 = target: T1, DrHCN4 (Danio rerio, UniProt A0A8N7UQR8); assay: Inhibition of HCN4 currents in Xenopus oocytes, two-electrode voltage clamp; format: cell-based, zebrafish (Danio rerio); conditions: holding −30 mV, hyperpolarized to −120 mV for 2 s, room temperature
# T1 sequence (A0A8N7UQR8 1-1140): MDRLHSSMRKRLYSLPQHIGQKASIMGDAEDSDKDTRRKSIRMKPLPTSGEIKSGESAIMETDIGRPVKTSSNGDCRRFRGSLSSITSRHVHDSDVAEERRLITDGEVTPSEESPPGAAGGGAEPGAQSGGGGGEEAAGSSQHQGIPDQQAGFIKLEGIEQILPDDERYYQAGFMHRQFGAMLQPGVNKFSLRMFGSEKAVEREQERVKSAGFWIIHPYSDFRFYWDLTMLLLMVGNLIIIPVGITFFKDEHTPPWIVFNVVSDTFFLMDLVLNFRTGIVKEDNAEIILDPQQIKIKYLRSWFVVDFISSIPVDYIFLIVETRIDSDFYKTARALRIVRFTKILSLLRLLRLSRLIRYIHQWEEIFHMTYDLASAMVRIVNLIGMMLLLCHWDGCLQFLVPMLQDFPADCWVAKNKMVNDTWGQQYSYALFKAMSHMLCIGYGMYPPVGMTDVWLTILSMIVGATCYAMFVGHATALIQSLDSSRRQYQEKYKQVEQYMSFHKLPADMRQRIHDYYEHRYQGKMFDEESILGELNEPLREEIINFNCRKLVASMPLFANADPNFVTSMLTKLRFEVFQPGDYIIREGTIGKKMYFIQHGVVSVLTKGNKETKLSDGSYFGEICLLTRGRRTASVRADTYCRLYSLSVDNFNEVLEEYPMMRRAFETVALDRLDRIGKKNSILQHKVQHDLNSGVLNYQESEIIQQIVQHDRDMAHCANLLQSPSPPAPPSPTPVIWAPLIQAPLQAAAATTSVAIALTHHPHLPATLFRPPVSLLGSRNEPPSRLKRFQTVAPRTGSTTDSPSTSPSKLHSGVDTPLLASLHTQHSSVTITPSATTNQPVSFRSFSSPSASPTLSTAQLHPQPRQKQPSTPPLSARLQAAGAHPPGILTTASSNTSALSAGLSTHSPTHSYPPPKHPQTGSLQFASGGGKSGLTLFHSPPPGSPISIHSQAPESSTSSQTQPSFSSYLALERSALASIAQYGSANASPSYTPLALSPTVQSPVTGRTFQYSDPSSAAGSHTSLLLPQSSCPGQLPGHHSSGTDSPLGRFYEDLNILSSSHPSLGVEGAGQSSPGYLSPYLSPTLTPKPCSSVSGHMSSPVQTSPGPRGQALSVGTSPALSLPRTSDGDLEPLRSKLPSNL
# [1] = tested on: developing zebrafish embryos; assay: HCN inhibitors in egg water: heart rate of developing zebrafish embryos; conditions: for Effect on heart rate, concentration dependence: 10 μM, 100 μM, 24 h and 48 h; for Effect on heart rate, concentration dependence / Heart rate recovery after washout: 1 mM; for Heart rate recovery after washout: 6 h after washout; for Pericardial edema in inhibitor-treated zebrafish: zebrafish embryos treated with inhibitor
# HsHCN4 = target: T2, HsHCN4 (Homo sapiens, UniProt Q9Y3Q4); assay: Inhibition of HCN4 currents in Xenopus oocytes, two-electrode voltage clamp; format: cell-based; conditions: holding −30 mV, hyperpolarized to −120 mV for 2 s, room temperature
# T2 construct: host or cells: Xenopus laevis oocytes injected with cRNA (pGEMHE vector)
# T2 sequence (Q9Y3Q4 1-1203): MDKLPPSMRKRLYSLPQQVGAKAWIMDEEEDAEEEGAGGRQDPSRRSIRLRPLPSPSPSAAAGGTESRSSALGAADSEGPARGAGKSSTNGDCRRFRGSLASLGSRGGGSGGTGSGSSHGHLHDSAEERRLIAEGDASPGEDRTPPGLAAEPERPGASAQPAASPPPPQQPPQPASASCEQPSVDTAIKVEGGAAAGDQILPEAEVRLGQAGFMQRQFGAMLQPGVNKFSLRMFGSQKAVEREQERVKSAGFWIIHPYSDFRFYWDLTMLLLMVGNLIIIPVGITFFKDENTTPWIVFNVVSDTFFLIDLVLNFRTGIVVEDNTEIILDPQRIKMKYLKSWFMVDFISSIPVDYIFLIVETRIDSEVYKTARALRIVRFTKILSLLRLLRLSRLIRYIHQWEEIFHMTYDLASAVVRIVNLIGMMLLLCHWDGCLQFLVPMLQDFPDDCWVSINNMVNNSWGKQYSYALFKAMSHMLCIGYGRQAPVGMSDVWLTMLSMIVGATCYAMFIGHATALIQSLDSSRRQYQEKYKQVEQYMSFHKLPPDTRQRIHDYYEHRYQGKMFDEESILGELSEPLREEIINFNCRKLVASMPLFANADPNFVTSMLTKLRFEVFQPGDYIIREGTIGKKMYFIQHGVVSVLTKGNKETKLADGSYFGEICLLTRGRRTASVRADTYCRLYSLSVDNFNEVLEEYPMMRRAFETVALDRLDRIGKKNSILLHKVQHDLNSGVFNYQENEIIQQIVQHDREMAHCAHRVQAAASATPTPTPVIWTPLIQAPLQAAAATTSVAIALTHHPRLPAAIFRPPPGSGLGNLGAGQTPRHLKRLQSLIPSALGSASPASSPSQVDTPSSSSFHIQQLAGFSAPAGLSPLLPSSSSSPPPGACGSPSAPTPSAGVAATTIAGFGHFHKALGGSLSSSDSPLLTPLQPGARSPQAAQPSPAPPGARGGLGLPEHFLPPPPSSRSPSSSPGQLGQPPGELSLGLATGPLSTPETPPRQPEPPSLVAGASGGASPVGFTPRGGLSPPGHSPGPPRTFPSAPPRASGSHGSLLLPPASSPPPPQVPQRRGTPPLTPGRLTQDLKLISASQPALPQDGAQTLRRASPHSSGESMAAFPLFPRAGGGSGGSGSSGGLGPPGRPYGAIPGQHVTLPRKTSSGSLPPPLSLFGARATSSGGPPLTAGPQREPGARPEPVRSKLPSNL
# [2] = DrHCN4 in Xenopus oocytes, read-out: IC50
# [3] = 0 h (24 hpf), before application of inhibitor, 10 μM group
# [4] = 0 h (24 hpf), before application of inhibitor, 100 μM group
# [5] = 0 h (24 hpf), before application of inhibitor, 1 mM group
# [6] = 24 h after application, 10 μM in egg water
# [7] = 24 h after application, 100 μM in egg water
# [8] = 24 h after application, 1 mM in egg water
# [9] = 48 h after application, 10 μM in egg water
# [10] = 48 h after application, 100 μM in egg water
# [11] = 48 h after application, 1 mM in egg water
# [12] = Washout, 6 h in inhibitor-free water after 48 h, 10 μM group
# [13] = Washout, 6 h in inhibitor-free water after 48 h, 100 μM group
# [14] = Washout, 6 h in inhibitor-free water after 48 h, 1 mM group
SMILES,IC50 (DrHCN4; [2]) [µM],"Heart rate [1, 3] [bpm]","Heart rate [1, 4] [bpm]","Heart rate [1, 5] [bpm]","Effect on heart rate, concentration dependence [1]",Heart rate recovery after washout [1],"Heart rate [1, 6] [bpm]","Heart rate [1, 7] [bpm]","Heart rate [1, 8] [bpm]","Heart rate [1, 9] [bpm]","Heart rate [1, 10] [bpm]","Heart rate [1, 11] [bpm]","Heart rate [1, 12] [bpm]","Heart rate [1, 13] [bpm]","Heart rate [1, 14] [bpm]",Pericardial edema in inhibitor-treated zebrafish [1],IC50 (HsHCN4),"IC50 (DrHCN4; IC50, DrHCN4 in Xenopus oocytes)","IC50 (DrHCN4; DrHCN4 in Xenopus oocytes, listed as Cs^+, read-out: IC50) [µM]",IC50 (HsHCN4; listed as Cs^+) [µM]
CCN(c1ccccc1)c1cc(=NC)n(C)c(C)n1.Cl [ZD7288],699 ± 216,81 ± 4,80 ± 3,84 ± 3,"significantly lowered heart rate, except for a concentration of 10 μM at 24 h",recovered,150 ± 3,129 ± 1,113 ± 3,142 ± 2,97 ± 4,94 ± 2,160 ± 3,140 ± 4,115 ± 2,no pericardial edema was observed,167 ± 56 µM,–,–,–
"COc1cc2c(cc1OC)CC(=O)N(CCCN(C)C[C@H]1Cc3cc(OC)c(OC)cc31)CC2 [Ivabradine, ivabradine hydrochloride]",–,81 ± 3,81 ± 2,85 ± 2,significantly suppressed heart rate at all concentrations and time points,recovered,134 ± 4,124 ± 5,98 ± 2,133 ± 2,101 ± 2,72 ± 2,149 ± 3,133 ± 3,115 ± 3,no pericardial edema was observed,38 µM and 37.6 µM,31 µM and 30.9 µM,–,–
"[Cl-].[Cs+] [Cesium ion, Cesium chloride]",44.3 ± 11.2,–,–,89 ± 1,–,–,–,–,131 ± 2,–,–,133 ± 2,–,–,139 ± 3,–,68.8 ± 14 µM,–,44 ± 11,69 ± 14
